Here are results for 19 compounds from patent US9725477B2, “Platinum compounds of malonic acid derivative having leaving group containing amino or alkylamino” (BEIJING FSWELCOME TECHNOLOGY DEVELOPMENT CO., LTD, priority 2012, dated 2017).

One series concerns colon cancer SW480. Kind of series: MTT cytotoxicity, colon cancer SW480. In kind it is cell-based.
For the next series, the system named is Lung cancer Lewis. Nature of the series: MTT cytotoxicity, lung cancer Lewis. In kind it is cell-based.
The next series deals with Lung cancer H292. Kind of series: MTT cytotoxicity, lung cancer H292. It counts as cell-based.
The subject of the next series is normal mice. Kind of series: in vivo. Conditions: Table 3; mice, single intravenous administration, 14 days observation. As for the experimental part: (§1) Kunming mice with 4˜6 weeks old and 18 g˜22 g by weight were taken, 50% males and 50% females. […] The condition of mortality and toxicity were observed after administration. Totally observing for 14 days, LD50 value was calculated using Bliss method according to the mortality.

Series [1] deals with Alveolar epithelial cells BEAS-2B. Nature of the series: MTT cytotoxicity, alveolar epithelial cells BEAS-2B. In kind it is cell-based.
The next series relates to Testis cell ST. Kind of series: MTT cytotoxicity, testis cell ST. In kind it is cell-based. The note with it: n = 6.
A further series relates to Esophagus cancer ECA109. Nature of the series: MTT cytotoxicity, esophagus cancer ECA109. Conditions: n = 6. It counts as cell-based.
The subject of another series is gastric cancer MGC803. Nature of the series: MTT cytotoxicity, gastric cancer MGC803. In kind it is cell-based. Conditions: n = 6.
Another series concerns Lung cancer A549. Nature of the series: MTT cytotoxicity, lung cancer A549. Conditions: read-out: cytotoxicity IC50; Lung cancer A549, MTT, n = 6, Table 4. The procedure: Cell morphologies were observed after being cultivated for 24 hours.
Series [2] has as its system Breast cancer MCF-7 cisplatin resistance strain. Kind of series: MTT cytotoxicity, breast cancer MCF-7 cisplatin resistance strain. It counts as cell-based. The note with it: n = 6.
Another series deals with Breast cancer MCF-7. Kind of series: MTT cytotoxicity, breast cancer MCF-7. It counts as cell-based. The note with it: Breast cancer MCF-7, MTT, n = 6.
For series [3] the following is noted: existing platinum drugs, background section; cited from earlier work.
A further series is described as follows: in vivo. Conditions: both, Kunming, mouse, in vivo, iv. As for the experimental part: as §1
The nature of series [4]: MTT cytotoxicity, alveolar epithelial cells BEAS-2B. The note with it: human, BEAS-2B alveolar epithelial cells; Alveolar epithelial cells BEAS-2B, MTT, n = 6. In kind it is cell-based.
Series [5] in a line: MTT cytotoxicity, testis cell ST. In kind it is cell-based. The note with it: pig, ST testis cells, n = 6.
The mark [6] stands for this setting: Lung cancer H292, MTT, n = 6, read-out: cytotoxicity IC50.
Where [7] appears, read: colon cancer SW480, MTT, n = 6, read-out: cytotoxicity IC50.
Where [8] appears, read: Lung cancer Lewis, MTT, n = 6, read-out: cytotoxicity IC50.
[9] abbreviates: compound of the example (salt form) in water.
[10] abbreviates: Alveolar epithelial cells BEAS-2B, MTT, n = 6, read-out: cytotoxicity IC50.

Where a name gives a salt, the structure may show the parent alone. Read-outs that look alike come from different tables or passages of the source.

As usually defined, the IC50 is the concentration at which inhibition is half-maximal. In the case of “2-(4-di-n-propylaminobutyl)-malonate•cis-diamine platinum (II) phosphate [Compound 7]”, the IC50 is 10 µM with colon cancer SW480, 21 µM in the series with Lung cancer Lewis, 4 µM in the series on Lung cancer H292 and 4 µM in series [1]. The “LD50 vALUE” in the series on normal mice is recorded as 0.778 mmol/kg.
Regarding “2-(4-diethylaminobutyl)-malonate•cis-dicyclopentylamine platinum (II) acetate [Compound 25]”, the IC50 was 6 µM in the series with Lung cancer H292 (setting [6]), 7 µM with Testis cell ST, 29 µM with Esophagus cancer ECA109 and 3 µM with gastric cancer MGC803.
As for “2-(4-ethyl aminobutyl)-malonate•cis-(1, 2-trans-cyclohexanediamine) platinum (II) phosphate [Compound 12]”, the IC50 in the series on colon cancer SW480 was 18 µM; with Lung cancer Lewis it was 18 µM; in the series with Lung cancer H292 it was 6 µM; in [1], 8 µM. Besides, the “LD50 vALUE” with normal mice is 0.729 mmol/kg.
`CCN(CC)CCCCC1C(=O)[O][Pt]2([NH]C3CCCCC3[NH]2)[O]C1=O.Cc1ccc(S(=O)(=O)O)cc1` (racemic) [Compound 3, 2-(4-diethylaminobutyl)-malonate•cis-(1,2-trans-cyclohexanediamine) platinum (II) tosilate]: the IC50 stood at 8 µM in the series on Lung cancer A549, 6 µM in the series on Lung cancer H292 (setting [6]), 21 µM in series [2] and 7 µM with Breast cancer MCF-7. For the same compound, in the series with normal mice, the “LD50 vALUE” is 0.815 mmol/kg.
As to `Cc1ccc(S(=O)(=O)O)cc1.O=C1[O][Pt]2([NH]C3CCCCC3[NH]2)[O]C(=O)C1CCCCN1CCCCC1` (racemic) [Compound 9, 2-(4-(1-piperidyl)-butyl)-malonate•cis-(1,2-trans-cyclohexanediamine) platinum (II) tosilate], the IC50 with colon cancer SW480 turned out to be 14 µM; with Lung cancer Lewis, 50 µM; in the series on Lung cancer H292, 8 µM; in [1] it was 2 µM. Moreover, in the series on normal mice, the “LD50 vALUE” worked out at 0.725 mmol/kg.
For `NCCCCC1C(=O)[O][Pt]2([NH]C3CCCCC3[NH]2)[O]C1=O.O=P(O)(O)O` (racemic) [Compound 11, 2-(4-aminobutyl)-malonate•cis-(1,2-trans-cyclohexanediamine) platinum (II) phosphate] the same measures were 21 µM, 49 µM, 5 µM, 2 µM and 0.803 mmol/kg.
What is called solubility is how much of the substance goes into solution per volume. Turning to `CCN(CC)CCCCC1C(=O)[O][Pt]2([NH]C3CCCC3[NH]2)[O]C1=O.O=P(O)(O)O` (racemic) [Compound 14, 2-(4-diethylaminobutyl)-malonate•cis-(1,2-trans-cyclopentanediamine) platinum (II) phosphate], the IC50 with colon cancer SW480 (setting [7]) was determined as 17 µM; with Lung cancer Lewis (setting [8]), 36 µM; with Lung cancer H292 (setting [6]), 12 µM; in series [1] (setting [10]), 5 µM. The “LD50 vALUE” in the series on normal mice is listed as 0.866 mmol/kg. For the same compound, the solubility entry in “Solubility in water” (setting [9]) is given as “more than 300 mg/ml”.
For the compound `CCN(CC)CCCCC1C(=O)[O][Pt]2([NH]CC3CCC3C[NH]2)[O]C1=O.O=P(O)(O)O` (racemic) [Compound 22, 2-(4-diethylaminobutyl)-malonate•cis-1,4-(trans-2,3-cyclobutyl)-butanediamine platinum (II) phosphate], the IC50 with Lung cancer H292 (setting [6]) amounted to 5 µM; with Testis cell ST, 14 µM; in the series on Esophagus cancer ECA109, 102 µM; in the series with gastric cancer MGC803, 7 µM. For the same compound, the solubility entry in “Solubility in water” (setting [9]) is listed as “more than 300 mg/ml”.
On to `N.N.O=C([O-])C1(C(=O)[O-])CCC1.[Pt+2]` [Carboplatin, cis-1,1-cyclobutanedicarboxylatodiamminoplatinum, reference compound], for which the IC50 in the series on colon cancer SW480 (setting [7]) stood at 87 µM; in the series on Lung cancer Lewis (setting [8]), 38 µM; in the series on Lung cancer A549, 232 µM; in the series on Lung cancer H292 (setting [6]) it was 55 µM; with Testis cell ST it was 195 µM; in series [2] it was 255 µM. Besides, the IC50 in the series with Breast cancer MCF-7 is 103 µM; in [1] (setting [10]), 37 µM; in the series on Esophagus cancer ECA109, 52 µM; in the series with gastric cancer MGC803, 625 µM. The “LD50 vALUE” with normal mice was found to be 0.336 mmol/kg. In series [3], the solubility is 17.8 mg/mL.
The term LD50 denotes the dose expected to kill half of the subjects tested. The low end stands for greater toxicity, the high end for lower toxicity. In the case of `CCN(CC)CCCCC1C(=O)[O][Pt]([NH2])([NH2])[O]C1=O` [Compound 1, 2-(4-diethylaminobutyl)-malonate•cis-diamine platinum (II) acetate], the LD50 in the series “in vivo” is 746 µmol/kg. This compound had a solubility in “Solubility in water” (water) of over 300 mg/mL.
For `[NH2][Pt]1([NH2])[O]C(=O)C(CCCCN2CCCCC2)C(=O)[O]1` [Compound 4, 2-(4-(1-piperidyl)-butyl)-malonate•cis-diamine platinum (II) phosphate] the same measures were 823 µmol/kg and over 300 mg/mL.
Take `[NH2][Pt]1([NH2])[O]C(=O)C(CCCCN2CCCC2)C(=O)[O]1` [Compound 5, 2-(4-(1-tetrahydropyrrolidinyl)-butyl)-malonate•cis-diamine platinum (II) phosphate]: the LD50 in “in vivo” was determined as 845 µmol/kg. The solubility in “Solubility in water” (water) is over 300 mg/mL. Besides, the IC50 in series [4] was found to be 2000 nM.
In “in vivo”, `CN(C)C1CC(C2C(=O)[O][Pt]([NH2])([NH2])[O]C2=O)C1` (stereo not drawn) [Compound 6, 2-(3-dimethylaminocyclobutyl)-malonate•cis-diamine platinum (II) mesylate] showed an LD50 of 756 µmol/kg. In the series “Solubility in water” (water), this compound displayed a solubility of over 300 mg/mL. Moreover, in series [4], the IC50 was 3000 nM.
The compound `CCN(CC)CC(C)CCC1C(=O)[O][Pt]([NH2])([NH2])[O]C1=O` (stereo not drawn) [Compound 8, 2-(3-methyl-4-diethylaminobutyl)-malonate•cis-diamine platinum (II) acetate] had an LD50 in the series “in vivo” of 801 µmol/kg. This compound also showed a solubility in the series “Solubility in water” (water) of over 300 mg/mL. The IC50 in series [4] came to 5000 nM.
As for `CC1CCCN1CCCCC1C(=O)[O][Pt]([NH2])([NH2])[O]C1=O` (stereo not drawn) [Compound 10, 2-(4-(2-methyl-1-tetrahydropyrrolidinyl)-butyl)-malonate•cis-diamine platinum (II) phosphate], in the series “in vivo”, the LD50 stood at 791 µmol/kg. Moreover, the solubility in the series “Solubility in water” (water) was over 300 mg/mL. The compound also gave an IC50 in series [4] of 3000 nM.
With `CCN(CC)CCCCC1C(=O)[O][Pt][O]C1=O.NC1CCC(N)CC1.O=P(O)(O)O` [Compound 23, 2-(4-diethylaminobutyl)-malonate•cis-1,4-cyclohexanediamine platinum (II) phosphate], the IC50 in the series with Lung cancer H292 (setting [6]) came out at 14 µM; in the series with Testis cell ST it was 8 µM; in the series with Esophagus cancer ECA109, 66 µM; in the series with gastric cancer MGC803 it was 5 µM. Also, in the series “Solubility in water” (setting [9]), the solubility result is “more than 300 mg/ml”.
In the case of `CCN(CC)CCCCC1C(=O)[O][Pt]2([NH]CC3(CCOCC3)C[NH]2)[O]C1=O.O=P(O)(O)O` [Compound 24, 2-(4-diethylaminobutyl)-malonate•cis-1,3-(2,2-(4-oxacyclohexyl))-propanediamine•platinum (II) phosphate], the IC50 stood at 3 µM in the series on Lung cancer H292 (setting [6]), 6 µM with Testis cell ST, 52 µM in the series with Esophagus cancer ECA109 and 3 µM in the series on gastric cancer MGC803. Further, the solubility result in the series “Solubility in water” (setting [9]) is given as “more than 300 mg/ml”.
In the series “in vivo”, `CCN(CC)CCCCC1C(=O)[O][Pt]([NH2])([N]2CCCCC2)[O]C1=O` (stereo not drawn) [Compound 28, 2-(4-diethylaminobutyl)-malonate•cis-ammonia•piperidine platinum (II) acetate] showed an LD50 at 14 days of 725 µmol/kg. Further, the IC50 in series [5] is 61 µM. This compound also showed a solubility in the series “Solubility in water” (water) of over 300 mg/mL.
Take `C[N+](C)(C)CCCCC1C(=O)[O][Pt][O]C1=O.Cc1ccc(S(=O)(=O)[O-])cc1.N[C@@H]1CCCC[C@H]1N` [Compound 29, 2-(4-trimethylaminobutyl)-malonate•cis-(1,2-trans-cyclohexanediamine) platinum(II) tosilate]: the IC50 in the series on Lung cancer H292 (setting [6]) stood at 7 µM; with Testis cell ST it was 8 µM; with Esophagus cancer ECA109, 25 µM; in the series with gastric cancer MGC803 it was 2 µM.
